Measured values from ChEMBL document CHEMBL3046208, “Natural and synthetic podolactones with potential use as natural herbicide models” (2000).
Activity calls are given as the source filed them. No cut-off for these calls is given here.

Legend:
Assay type in all cases: functional
Solanum lycopersicum [1] = assay: Inhibition of root length of Solanum lycopersicum (tomato) at 0.1 mM after 5 days relative to untreated control; details: 120 h
Solanum lycopersicum [2] = assay: Inhibition of germination of Solanum lycopersicum (tomato) at 0.1 mM after 5 days relative to untreated control
Lactuca sativa [3] = assay: Inhibition of germination of Lactuca sativa cv. Nigra (lettuce) at 0.1 mM after 5 days relative to untreated control
Hordeum vulgare [4] = assay: Stimulation of shoot length of Hordeum vulgare (barley) at 0.1 mM after 5 days relative to untreated control
Allium cepa [5] = assay: Stimulation of root length of Allium cepa (onion) at 0.1 mM after 5 days relative to untreated control
Triticum aestivum [6] = assay: Inhibition of germination of Triticum aestivum (wheat) at 0.1 mM after 5 days relative to untreated control
Solanum lycopersicum [7] = assay: Stimulation of root length of Solanum lycopersicum (tomato) at 0.1 mM after 5 days relative to untreated control
Solanum lycopersicum [8] = assay: Stimulation of shoot length of Solanum lycopersicum (tomato) at 0.1 mM after 5 days relative to untreated control
Lepidium sativum [9] = assay: Inhibition of root length of Lepidium sativum at 0.1 mM after 5 days relative to untreated control; details: 120 h
Solanum lycopersicum [10] = assay: Stimulation of root length of Solanum lycopersicum (tomato) at 0.1 uM after 5 days relative to untreated control
Allium cepa [11] = assay: Stimulation of germination of Allium cepa (onion) at 0.1 mM after 5 days relative to untreated control
Lactuca sativa [12] = assay: Stimulation of germination of Lactuca sativa cv. Nigra (lettuce) at 0.1 mM after 5 days relative to untreated control
Lactuca sativa [13] = assay: Inhibition of root length of Lactuca sativa cv. Nigra (lettuce) at 0.1 mM after 5 days relative to untreated control
Lactuca sativa [14] = assay: Inhibition of germination of Lactuca sativa cv. Roman (lettuce) at 0.1 mM after 5 days relative to untreated control
Hordeum vulgare [15] = assay: Inhibition of root length of Hordeum vulgare (barley) at 0.1 mM after 5 days relative to untreated control; details: 120 h
Triticum aestivum [16] = assay: Stimulation of root length of Triticum aestivum (wheat) at 0.1 mM after 5 days relative to untreated control
Lactuca sativa [17] = assay: Inhibition of shoot length of Lactuca sativa cv. Nigra (lettuce) at 0.1 mM after 5 days relative to untreated control; details: 120 h
Triticum aestivum [18] = assay: Inhibition of root length of Triticum aestivum (wheat) at 0.1 mM after 5 days relative to untreated control
Allium cepa [19] = assay: Stimulation of shoot length of Allium cepa (onion) at 0.1 mM after 5 days relative to untreated control
Lepidium sativum [20] = assay: Stimulation of shoot length of Lepidium sativum at 0.1 mM after 5 days relative to untreated control
Allium cepa [21] = assay: Inhibition of germination of Allium cepa (onion) at 0.1 mM after 5 days relative to untreated control; details: 120 h
Hordeum vulgare [22] = assay: Stimulation of root length of Hordeum vulgare (barley) at 0.1 mM after 5 days relative to untreated control
Solanum lycopersicum [23] = assay: Inhibition of shoot length of Solanum lycopersicum (tomato) at 0.1 mM after 5 days relative to untreated control; details: 120 h
Lepidium sativum [24] = assay: Stimulation of germination of Lepidium sativum at 0.1 mM after 5 days relative to untreated control
Triticum aestivum [25] = assay: Inhibition of shoot length of Triticum aestivum (wheat) at 0.1 mM after 5 days relative to untreated control
Solanum lycopersicum [26] = assay: Stimulation of germination of Solanum lycopersicum (tomato) at 0.1 mM after 5 days relative to untreated control
Lactuca sativa [27] = assay: Stimulation of shoot length of Lactuca sativa cv. Roman (lettuce) at 0.1 mM after 5 days relative to untreated control
Hordeum vulgare [28] = assay: Stimulation of germination of Hordeum vulgare (barley) at 0.1 mM after 5 days relative to untreated control
Lepidium sativum [29] = assay: Stimulation of root length of Lepidium sativum at 0.1 mM after 5 days relative to untreated control
Lactuca sativa [30] = assay: Stimulation of root length of Lactuca sativa cv. Roman (lettuce) at 0.1 mM after 5 days relative to untreated control
Triticum aestivum [31] = assay: Stimulation of shoot length of Triticum aestivum (wheat) at 0.1 mM after 5 days relative to untreated control
Triticum aestivum [32] = assay: Stimulation of germination of Triticum aestivum (wheat) at 0.1 mM after 5 days relative to untreated control
Lactuca sativa [33] = assay: Stimulation of root length of Lactuca sativa cv. Nigra (lettuce) at 0.1 mM after 5 days relative to untreated control
Allium cepa [34] = assay: Inhibition of root length of Allium cepa (onion) at 0.1 mM after 5 days relative to untreated control
Hordeum vulgare [35] = assay: Inhibition of shoot length of Hordeum vulgare (barley) at 0.1 mM after 5 days relative to untreated control; details: 120 h
Lactuca sativa [36] = assay: Stimulation of germination of Lactuca sativa cv. Roman (lettuce) at 0.1 mM after 5 days relative to untreated control
Lepidium sativum [37] = assay: Inhibition of shoot length of Lepidium sativum at 0.1 mM after 5 days relative to untreated control; details: 120 h
Allium cepa [38] = assay: Inhibition of shoot length of Allium cepa (onion) at 0.1 mM after 5 days relative to untreated control; details: 120 h
Lactuca sativa [39] = assay: Inhibition of shoot length of Lactuca sativa cv. Roman (lettuce) at 0.1 mM after 5 days relative to untreated control
Hordeum vulgare [40] = assay: Inhibition of germination of Hordeum vulgare (barley) at 0.1 mM after 5 days relative to untreated control; details: 120 h
Lactuca sativa [41] = assay: Stimulation of shoot length of Lactuca sativa cv. Nigra (lettuce) at 0.1 mM after 5 days relative to untreated control
Lepidium sativum [42] = assay: Inhibition of germination of Lepidium sativum at 0.1 mM after 5 days relative to untreated control
Lactuca sativa [43] = assay: Inhibition of root length of Lactuca sativa cv. Roman (lettuce) at 0.1 mM after 5 days relative to untreated control
Solanum lycopersicum [44] = assay: Stimulation of root length of Solanum lycopersicum (tomato) at 1 nM after 5 days relative to untreated control
Hordeum vulgare [45] = assay: Inhibition of germination of Hordeum vulgare (barley) at 1 uM after 5 days relative to untreated control; details: 120 h
Allium cepa [46] = assay: Inhibition of germination of Allium cepa (onion) at 10 nM after 5 days relative to untreated control; details: 120 h

COC(=O)[C@@]1(C)CCC[C@]2(C)c3cc(=O)occ3CC[C@@H]12
inhibition at 100 µM (Solanum lycopersicum [1]): > 40% | inhibition (Solanum lycopersicum [2]): inactive | inhibition at 100 µM (Lactuca sativa [3]; 120 h): < 20% | Activity (Hordeum vulgare [4]): <20% | Activity (Allium cepa [5]): inactive | inhibition at 100 µM (Triticum aestivum [6]; 120 h): < 20% | Activity (Solanum lycopersicum [7]): >40% | Activity (Solanum lycopersicum [8]): <20% | inhibition at 100 µM (Lepidium sativum [9]): 20% | Activity (Solanum lycopersicum [10]): 58% | Activity (Allium cepa [11]): <20% | Activity (Lactuca sativa [12]): <20% | inhibition (Lactuca sativa [13]): inactive | inhibition (Lactuca sativa [14]): inactive | inhibition at 100 µM (Hordeum vulgare [15]): 20% | Activity (Triticum aestivum [16]): <20% | inhibition at 100 µM (Lactuca sativa [17]): < 20% | inhibition at 100 µM (Triticum aestivum [18]; 120 h): < 20% | Activity (Allium cepa [19]): <20% | Activity (Lepidium sativum [20]): <20% | inhibition at 100 µM (Allium cepa [21]): < 20% | Activity (Hordeum vulgare [22]): 20% | inhibition at 100 µM (Solanum lycopersicum [23]): < 20% | Activity (Lepidium sativum [24]): inactive | inhibition (Triticum aestivum [25]): inactive | Activity (Solanum lycopersicum [26]): inactive | Activity (Lactuca sativa [27]): inactive | Activity (Hordeum vulgare [28]): 20% | Activity (Lepidium sativum [29]): 20% | Activity (Lactuca sativa [30]): inactive | Activity (Triticum aestivum [31]): inactive | Activity (Triticum aestivum [32]): <20% | Activity (Lactuca sativa [33]): inactive | inhibition (Allium cepa [34]): inactive | inhibition at 100 µM (Hordeum vulgare [35]): < 20% | Activity (Lactuca sativa [36]): inactive | inhibition at 100 µM (Lepidium sativum [37]): < 20% | inhibition at 100 µM (Allium cepa [38]): < 20% | inhibition (Lactuca sativa [39]): inactive | inhibition at 100 µM (Hordeum vulgare [40]): 20% | Activity (Lactuca sativa [41]): <20% | inhibition (Lepidium sativum [42]): inactive | inhibition (Lactuca sativa [43]): inactive

COC(=O)[C@@]1(C)CCC[C@]2(C)C3=C(CC[C@@H]12)COC(=O)C3
inhibition at 100 µM (Solanum lycopersicum [1]): > 40% | inhibition at 100 µM (Solanum lycopersicum [2]; 120 h): < 20% | inhibition (Lactuca sativa [3]): inactive | Activity (Hordeum vulgare [4]): >40% | Activity (Allium cepa [5]): inactive | inhibition (Triticum aestivum [6]): inactive | Activity (Solanum lycopersicum [7]): >40% | Activity (Solanum lycopersicum [8]): <20% | inhibition at 100 µM (Lepidium sativum [9]): < 20% | Activity (Allium cepa [11]): 20% | Activity (Lactuca sativa [12]): inactive | inhibition (Lactuca sativa [13]): inactive | inhibition at 100 µM (Lactuca sativa [14]; 120 h): < 20% | inhibition at 100 µM (Hordeum vulgare [15]): > 40% | Activity (Triticum aestivum [16]): inactive | inhibition at 100 µM (Lactuca sativa [17]): < 20% | inhibition (Triticum aestivum [18]): inactive | Activity (Allium cepa [19]): <20% | Activity (Lepidium sativum [20]): <20% | inhibition at 100 µM (Allium cepa [21]): 20% | Activity (Solanum lycopersicum [44]): 56% | Activity (Hordeum vulgare [22]): >40% | inhibition at 100 µM (Solanum lycopersicum [23]): < 20% | Activity (Lepidium sativum [24]): inactive | inhibition (Triticum aestivum [25]): inactive | inhibition at 1 µM (Hordeum vulgare [45]): -71% | inhibition at 0.01 µM (Allium cepa [46]): -45% | Activity (Solanum lycopersicum [26]): <20% | Activity (Lactuca sativa [27]): <20% | Activity (Hordeum vulgare [28]): >40% | Activity (Lepidium sativum [29]): <20% | Activity (Lactuca sativa [30]): inactive | Activity (Triticum aestivum [31]): inactive | Activity (Triticum aestivum [32]): inactive | Activity (Lactuca sativa [33]): inactive | inhibition (Allium cepa [34]): inactive | inhibition at 100 µM (Hordeum vulgare [35]): > 40% | Activity (Lactuca sativa [36]): <20% | inhibition at 100 µM (Lepidium sativum [37]): < 20% | inhibition at 100 µM (Allium cepa [38]): < 20% | inhibition at 100 µM (Lactuca sativa [39]; 120 h): < 20% | inhibition at 100 µM (Hordeum vulgare [40]): > 40% | Activity (Lactuca sativa [41]): <20% | inhibition (Lepidium sativum [42]): inactive | inhibition (Lactuca sativa [43]): inactive
